Laboratory results as given in patent publication US12559506B2, “Indazole based compounds and associated methods of use” (Arvinas Operations, Inc., priority 2021, dated 2026).
Like-named read-outs stand apart in the source and are kept apart here.

Target: T1, LRRK2 (endogenous, HiBit tagged) (Homo sapiens, UniProt Q5S007)
T1 construct: endogenous in cells; host or cells: HEK293 cells with HiBit knock-in at the endogenous LRRK2 locus, stably expressing firefly luciferase
Assay: Endogenous LRRK2 degradation assay, endogenous gene C-terminally HiBit-tagged in HEK293 cells (Nano-Glo Dual Luciferase)
Format: cell-based
Conditions: endogenous HiBit-tagged LRRK2 in HEK293 cells, 24 hours treatment
In short: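 LRRK2-HiBit quantified via Nano-Glo Dual Luciferase in HEK293 knock-in cells co-expressing firefly luciferase, after 24 h exposure to compound (1 μM final top, 1:3, 11 points). Values normalised to DMSO median per plate and curve-fitted; Alamar Blue viability run alongside.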

[1] = read-out: **Endogenous WT Dmax (%)

T1 sequence (Q5S007 whole entry): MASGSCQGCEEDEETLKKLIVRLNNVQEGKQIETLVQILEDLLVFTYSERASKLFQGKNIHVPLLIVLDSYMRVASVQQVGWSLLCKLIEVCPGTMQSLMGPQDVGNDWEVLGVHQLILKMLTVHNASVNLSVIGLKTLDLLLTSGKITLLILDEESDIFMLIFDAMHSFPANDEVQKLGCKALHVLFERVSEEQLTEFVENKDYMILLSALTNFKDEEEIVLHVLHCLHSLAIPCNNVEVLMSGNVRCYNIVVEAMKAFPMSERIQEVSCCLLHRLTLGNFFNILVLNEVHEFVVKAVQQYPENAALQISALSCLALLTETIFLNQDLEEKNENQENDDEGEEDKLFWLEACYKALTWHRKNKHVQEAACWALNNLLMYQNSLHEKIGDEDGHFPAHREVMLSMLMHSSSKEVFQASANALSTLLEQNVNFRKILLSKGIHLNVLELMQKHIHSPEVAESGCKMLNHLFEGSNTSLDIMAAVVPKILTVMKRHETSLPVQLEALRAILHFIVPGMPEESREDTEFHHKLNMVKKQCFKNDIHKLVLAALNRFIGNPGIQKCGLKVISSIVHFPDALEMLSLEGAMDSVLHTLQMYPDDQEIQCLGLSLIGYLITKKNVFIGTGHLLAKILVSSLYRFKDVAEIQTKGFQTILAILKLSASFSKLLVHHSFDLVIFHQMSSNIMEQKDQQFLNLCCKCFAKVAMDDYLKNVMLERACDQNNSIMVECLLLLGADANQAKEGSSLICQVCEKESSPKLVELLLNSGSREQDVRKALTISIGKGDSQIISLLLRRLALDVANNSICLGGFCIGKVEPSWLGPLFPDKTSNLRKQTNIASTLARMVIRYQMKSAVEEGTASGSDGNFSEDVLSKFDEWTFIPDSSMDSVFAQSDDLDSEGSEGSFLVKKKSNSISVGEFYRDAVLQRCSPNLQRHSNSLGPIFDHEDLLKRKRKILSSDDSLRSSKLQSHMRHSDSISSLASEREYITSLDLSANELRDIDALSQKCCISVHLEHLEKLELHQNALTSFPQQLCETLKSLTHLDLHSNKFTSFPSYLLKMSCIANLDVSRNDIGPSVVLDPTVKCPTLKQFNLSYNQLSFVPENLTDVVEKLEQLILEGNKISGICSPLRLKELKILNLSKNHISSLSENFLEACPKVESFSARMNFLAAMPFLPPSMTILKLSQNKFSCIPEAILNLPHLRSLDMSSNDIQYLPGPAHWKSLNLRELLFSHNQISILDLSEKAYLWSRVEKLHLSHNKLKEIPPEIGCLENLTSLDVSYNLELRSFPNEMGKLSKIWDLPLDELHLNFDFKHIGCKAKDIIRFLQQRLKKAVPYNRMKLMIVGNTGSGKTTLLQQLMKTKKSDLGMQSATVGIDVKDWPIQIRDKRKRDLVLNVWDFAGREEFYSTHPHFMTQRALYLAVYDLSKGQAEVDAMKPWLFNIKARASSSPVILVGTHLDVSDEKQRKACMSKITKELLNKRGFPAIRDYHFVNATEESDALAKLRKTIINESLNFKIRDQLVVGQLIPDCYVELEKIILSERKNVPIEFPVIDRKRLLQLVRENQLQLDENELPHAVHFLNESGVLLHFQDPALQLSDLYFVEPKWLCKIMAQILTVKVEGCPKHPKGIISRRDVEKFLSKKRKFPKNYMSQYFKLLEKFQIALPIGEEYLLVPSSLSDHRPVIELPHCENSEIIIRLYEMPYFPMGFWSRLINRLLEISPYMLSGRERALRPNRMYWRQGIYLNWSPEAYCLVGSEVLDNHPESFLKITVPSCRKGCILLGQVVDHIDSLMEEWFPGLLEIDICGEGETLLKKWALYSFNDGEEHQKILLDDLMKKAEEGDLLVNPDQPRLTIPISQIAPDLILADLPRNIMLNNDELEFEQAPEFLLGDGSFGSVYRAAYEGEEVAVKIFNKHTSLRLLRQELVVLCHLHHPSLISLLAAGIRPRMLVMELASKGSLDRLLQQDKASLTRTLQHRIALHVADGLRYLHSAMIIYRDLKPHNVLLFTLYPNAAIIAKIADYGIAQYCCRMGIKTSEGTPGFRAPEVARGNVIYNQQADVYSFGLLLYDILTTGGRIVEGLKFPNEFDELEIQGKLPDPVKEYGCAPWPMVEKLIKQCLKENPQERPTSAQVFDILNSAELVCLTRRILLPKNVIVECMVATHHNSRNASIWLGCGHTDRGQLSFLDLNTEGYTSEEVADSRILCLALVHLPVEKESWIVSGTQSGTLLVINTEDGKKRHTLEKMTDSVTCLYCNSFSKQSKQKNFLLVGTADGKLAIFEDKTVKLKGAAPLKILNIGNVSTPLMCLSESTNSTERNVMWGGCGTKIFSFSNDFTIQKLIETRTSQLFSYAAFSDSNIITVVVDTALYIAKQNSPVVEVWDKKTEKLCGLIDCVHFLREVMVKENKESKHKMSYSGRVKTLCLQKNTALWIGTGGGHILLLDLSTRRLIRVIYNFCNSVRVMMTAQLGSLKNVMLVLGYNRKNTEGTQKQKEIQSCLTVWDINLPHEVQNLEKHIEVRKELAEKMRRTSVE

COc1c(N2CC[C@@H](CN3CCN(CC4CCN(c5cc(-c6n[nH]c7ccc(OC8(C)CC8)cc67)ncn5)CC4)CC3)C2)ccc2c1CN(C1CCC(=O)NC1=O)C2=O (stereo partly drawn) [Compound 328, 3-{4-methoxy-5-[(3S)-3-({4-[(1-{6-[5-(1-methylcyclopropoxy)-1H-indazol-3-yl]pyrimidin-4-yl}piperidin-4-yl)methyl]piperazin-1-yl}methyl)pyrrolidin-1-yl]-1-oxo-2,3-dihydro-1H-isoindol-2-yl}piperidine-2,6-dione]
Dmax [1]: 50 to 70%
DC50 (read-out: *Endogenous WT DC50): < 10 nM

COc1c(N2CCC(CN3CCN(CC4CCN(c5cc(-c6n[nH]c7cnc(OC8(C)CC8)cc67)ncn5)CC4)CC3(C)C)CC2)ccc2c1CN(C1CCC(=O)NC1=O)C2=O (stereo not shown) [Compound 277, 3-{5-[4-({2,2-dimethyl-4-[(1-{6-[5-(1-methylcyclopropoxy)-1H-pyrazolo[3,4-c]pyridin-3-yl]pyrimidin-4-yl}piperidin-4-yl)methyl]piperazin-1-yl}methyl)piperidin-1-yl]-4-methoxy-1-oxo-2,3-dihydro-1H-isoindol-2-yl}piperidine-2,6-dione]
Dmax [1]: 50 to 70%
DC50 (read-out: *Endogenous WT DC50): < 10 nM

CC1(Oc2ccc3[nH]nc(-c4cc(N5CC[C@H](CN6CCN(CC7CCN(c8ccc9c(c8F)CN(C8CCC(=O)NC8=O)C9=O)CC7)CC6)C5)ncn4)c3c2)CC1 (stereo partly drawn) [Compound 295, 3-(4-fluoro-5-{4-[(4-{[(3R)-1-{6-[5-(1-methylcyclopropoxy)-1H-indazol-3-yl]pyrimidin-4-yl}pyrrolidin-3-yl]methyl}piperazin-1-yl)methyl]piperidin-1-yl}-1-oxo-2,3-dihydro-1H-isoindol-2-yl)piperidine-2,6-dione]
Dmax [1]: 50 to 70%
DC50 (read-out: *Endogenous WT DC50): < 10 nM

COc1c(N2CCC(CN3CCC(OC4CN(c5cc(-c6[nH]nc7ccc(OC8(C)CC8)cc67)ncn5)C4)CC3)CC2)ccc2c1CN(C1CCC(=O)NC1=O)C2=O (stereo not shown) [Compound 298, 3-{4-methoxy-5-[4-({4-[(1-{6-[5-(1-methylcyclopropoxy)-2H-indazol-3-yl]pyrimidin-4-yl}azetidin-3-yl)oxy]piperidin-1-yl}methyl)piperidin-1-yl]-1-oxo-2,3-dihydro-1H-isoindol-2-yl}piperidine-2,6-dione]
Dmax [1]: 50 to 70%
DC50 (read-out: *Endogenous WT DC50): < 10 nM

COc1c(N2CCC(O[C@@H]3CCN(CC4CCN(c5cc(-c6n[nH]c7ccc(OC8(C)CC8)cc67)ncn5)CC4)C(C)(C)C3)CC2)ccc2c1CN(C1CCC(=O)NC1=O)C2=O (stereo partly drawn) [Compound 322, 3-[5-(4-{[(4R)-2,2-dimethyl-1-[(1-{6-[5-(1-methylcyclopropoxy)-1H-indazol-3-yl]pyrimidin-4-yl}piperidin-4-yl)methyl]piperidin-4-yl]oxy}piperidin-1-yl)-4-methoxy-1-oxo-2,3-dihydro-1H-isoindol-2-yl]piperidine-2,6-dione]
Dmax [1]: 50 to 70%
DC50 (read-out: *Endogenous WT DC50): < 10 nM

CC1(Oc2ccc3[nH]nc(-c4cc(N5CCC(COC6CCC7(CC6)CN(c6ccc8c(c6F)CN(C6CCC(=O)NC6=O)C8=O)C7)CC5)ncn4)c3c2)CC1 (stereo not shown) [Compound 372, 3-(4-fluoro-5-{7-[(1-{6-[5-(1-methylcyclopropoxy)-1H-indazol-3-yl]pyrimidin-4-yl}piperidin-4-yl)methoxy]-2-azaspiro[3.5]nonan-2-yl}-1-oxo-2,3-dihydro-1H-isoindol-2-yl)piperidine-2,6-dione]
DC50 (read-out: Endogenous WT DC50): < 10 nM
Dmax (read-out: Endogenous WT Dmax): 50 to 70%

CC1(Oc2ccc3[nH]nc(-c4cc(N5CCC(CN6CCN(CC7CCN(c8ccc9c(c8F)CN(C8CCC(=O)NC8=O)C9=O)CC7)C(C)(C)C6)CC5)ncn4)c3c2)CC1 (stereo not shown) [Compound 236, 3-[5-[4-[[2,2-dimethyl-4-[[1-[6-[5-(1-methylcyclopropoxy)-1H-indazol-3-yl]pyrimidin-4-yl]-4-piperidyl]methyl]piperazin-1-yl]methyl]-1-piperidyl]-4-fluoro-1-oxo-isoindolin-2-yl]piperidine-2,6-dione]
DC50 (read-out: Endogenous WT DC50): < 10 nM
Dmax (read-out: Endogenous WT Dmax): 50 to 70%

CC1(Oc2ccc3n[nH]c(-c4cc(N5CCN(C[C@H]6CC[C@H](OC7CCN(c8ccc9c(c8F)CN(C8CCC(=O)NC8=O)C9=O)CC7)CC6)CC5)ncn4)c3c2)CC1 (stereo partly shown) [Compound 234, 3-[4-fluoro-5-[4-[4-[[4-[6-[5-(1-methylcyclopropoxy)-2H-indazol-3-yl]pyrimidin-4-yl]piperazin-1-yl]methyl]cyclohexoxy]-1-piperidyl]-1-oxo-isoindolin-2-yl]piperidine-2,6-dione]
DC50 (read-out: Endogenous WT DC50): < 10 nM
Dmax (read-out: Endogenous WT Dmax): 50 to 70%

CC1(Oc2ccc3n[nH]c(-c4cc(N5CCC(O[C@H]6C[C@H](CN7CCN(c8ccc9c(c8F)CN(C8CCC(=O)NC8=O)C9=O)CC7)C6)CC5)ncn4)c3c2)CC1 (stereo partly shown) [Compound 351, 3-[4-fluoro-1-oxo-5-(4-{[(1r,3r)-3-[(1-{6-[5-(1-methylcyclopropoxy)-2H-indazol-3-yl]pyrimidin-4-yl}piperidin-4-yl)oxy]cyclobutyl]methyl}piperazin-1-yl)-2,3-dihydro-1H-isoindol-2-yl]piperidine-2,6-dione]
Dmax [1]: 50 to 70%
DC50 (read-out: *Endogenous WT DC50): < 10 nM

CC1(Oc2ccc3[nH]nc(-c4cc(N5CCN(CC6(F)CCN(CC7CCN(c8c(F)cc9c(c8F)CN(C8CCC(=O)NC8=O)C9=O)CC7)CC6)CC5)ncn4)c3c2)CC1 (stereo not shown) [Compound 220, 3-{4,6-difluoro-5-[4-({4-fluoro-4-[(4-{6-[5-(1-methylcyclopropoxy)-1H-indazol-3-yl]pyrimidin-4-yl}piperazin-1-yl)methyl]piperidin-1-yl}methyl)piperidin-1-yl]-1-oxo-2,3-dihydro-1H-isoindol-2-yl}piperidine-2,6-dione]
DC50 (read-out: Endogenous WT DC50): < 10 nM
Dmax (read-out: Endogenous WT Dmax): 50 to 70%

COc1c(N2CCC(C(C)(C)N3CCN(CC4CCN(c5cc(-c6n[nH]c7ccc(OC8(C)CC8)cc67)ncn5)CC4)CC3)CC2)ccc2c1CN(C1CCC(=O)NC1=O)C2=O (stereo not shown) [Compound 318, 3-{4-methoxy-5-[4-(2-{4-[(1-{6-[5-(1-methylcyclopropoxy)-1H-indazol-3-yl]pyrimidin-4-yl}piperidin-4-yl)methyl]piperazin-1-yl}propan-2-yl)piperidin-1-yl]-1-oxo-2,3-dihydro-1H-isoindol-2-yl}piperidine-2,6-dione]
Dmax [1]: ≥ 70%
DC50 (read-out: *Endogenous WT DC50): < 10 nM

CC1(Oc2cc3c(-c4cc(N5CCC(CN6CCN(CC7CCN(c8ccc9c(c8F)CN(C8CCC(=O)NC8=O)C9=O)CC7)C(C)(C)C6)CC5)ncn4)n[nH]c3cn2)CC1 (stereo not shown) [Compound 270, 3-{5-[4-({2,2-dimethyl-4-[(1-{6-[5-(1-methylcyclopropoxy)-1H-pyrazolo[3,4-c]pyridin-3-yl]pyrimidin-4-yl}piperidin-4-yl)methyl]piperazin-1-yl}methyl)piperidin-1-yl]-4-fluoro-1-oxo-2,3-dihydro-1H-isoindol-2-yl}piperidine-2,6-dione]
Dmax [1]: ≥ 70%
DC50 (read-out: *Endogenous WT DC50): < 10 nM

COc1c(N2CC3(CCN(CC4CCN(c5cc(-c6n[nH]c7ccc(OC8(C)CC8)cc67)ncn5)CC4)CC3(F)F)C2)ccc2c1CN(C1CCC(=O)NC1=O)C2=O (stereo not shown) [Compound 332, 3-(5-{5,5-difluoro-7-[(1-{6-[5-(1-methylcyclopropoxy)-1H-indazol-3-yl]pyrimidin-4-yl}piperidin-4-yl)methyl]-2,7-diazaspiro[3.5]nonan-2-yl}-4-methoxy-1-oxo-2,3-dihydro-1H-isoindol-2-yl)piperidine-2,6-dione]
Dmax [1]: 50 to 70%
DC50 (read-out: *Endogenous WT DC50): < 10 nM

CC1(Oc2ccc3n[nH]c(-c4cc(N5CCN(C[C@H]6CO[C@H](CN7CCN(c8ccc9c(c8F)CN(C8CCC(=O)NC8=O)C9=O)CC7)CO6)CC5)ncn4)c3c2)CC1 (stereo partly shown) [Compound 296, 3-[4-fluoro-5-(4-{[(2r,5s)-5-[(4-{6-[5-(1-methylcyclopropoxy)-2H-indazol-3-yl]pyrimidin-4-yl}piperazin-1-yl)methyl]-1,4-dioxan-2-yl]methyl}piperazin-1-yl)-1-oxo-2,3-dihydro-1H-isoindol-2-yl]piperidine-2,6-dione]
Dmax [1]: 50 to 70%
DC50 (read-out: *Endogenous WT DC50): < 10 nM

CC1(Oc2ccc3[nH]nc(-c4cc(N5CCC(CC6(F)CCN(CC7CCN(c8c(F)cc9c(c8F)CN(C8CCC(=O)NC8=O)C9=O)CC7)CC6)CC5)ncn4)c3c2)CC1 (stereo not shown) [Compound 223, 3-{4,6-difluoro-5-[4-({4-fluoro-4-[(1-{6-[5-(1-methylcyclopropoxy)-1H-indazol-3-yl]pyrimidin-4-yl}piperidin-4-yl)methyl]piperidin-1-yl}methyl)piperidin-1-yl]-1-oxo-2,3-dihydro-1H-isoindol-2-yl}piperidine-2,6-dione]
DC50 (read-out: Endogenous WT DC50): 10 to 50 nM
Dmax (read-out: Endogenous WT Dmax): 50 to 70%

CC1(Oc2ccc3n[nH]c(-c4cc(N5CCC(CN6CCN(CC7(F)CCN(c8ccc9c(c8F)CN(C8CCC(=O)NC8=O)C9=O)CC7)CC6)CC5)ncn4)c3c2)CC1 (stereo not shown) [Compound 209, 3-[4-fluoro-5-[4-fluoro-4-[[4-[[1-[6-[5-(1-methylcyclopropoxy)-2H-indazol-3-yl]pyrimidin-4-yl]-4-piperidyl]methyl]piperazin-1-yl]methyl]-1-piperidyl]-1-oxo-isoindolin-2-yl]piperidine-2,6-dione]
DC50 (read-out: Endogenous WT DC50): < 10 nM
Dmax (read-out: Endogenous WT Dmax): ≥ 70%

C[C@H]1CN(c2cc(-c3n[nH]c4ccc(OC5(C)CC5)cc34)ncn2)CCN1C[C@H]1CC[C@H](OC2CCN(c3ccc4c(c3F)CN(C3CCC(=O)NC3=O)C4=O)CC2)CC1 (stereo partly drawn) [Compound 348, 3-(4-fluoro-5-(4-(((1s,4r)-4-(((S)-2-methyl-4-(6-(5-(1-methylcyclopropoxy)-1H-indazol-3-yl)pyrimidin-4-yl)piperazin-1-yl)methyl)cyclohexyl)oxy)piperidin-1-yl)-1-oxoisoindolin-2-yl)piperidine-2,6-dione]
Dmax [1]: 50 to 70%
DC50 (read-out: *Endogenous WT DC50): < 10 nM
